From patent US8084630B2, “Process for the synthesis of ramelteon and its intermediates” (Teva Pharmaceutical Industries Ltd., priority 2007, dated 2011)
Several values for one entry are separate records, joined by “and”; a condition that tells them apart may be missing. Identical values can stand only once. Like-named read-outs stand apart in the source and are kept apart here.

Legend:
[1] = Electrostatic charge measurement (shaking can, Faraday cup); type: physicochemical; conditions: for Average Charge Density of Batch: 3 samples; for Calculated Charge Density: shaken 90 seconds
Excerpt: Electrostatic Charge Measurement
Equipment and Accessories
Electrical Shaker—Scientific Industries type Vortex-2 Genie (including specific holder for the shaking cans).
Electrostatic Charge Meter—Monroe Electronics type Nanocoulomb Meter 253 (Faraday Cup).
Metal shaking can, S.S. 316, 30×50_mm.
Plastic shaking can, Perspex, 30×50_mm.
Description of Test Procedure
Calibration of the Electrostatic Charge Meter, prior the test according to manufacturer's procedure.
6 sample cans were used for each batch.
The shaking can placed in flat dish, the sample cam was opened and the powder was manually poured into the shaking can.
The shaking can was hermetically closed by plastic cover and mounted in the holder.
The electrical shaker was operated for 90 seconds, at maximum rate.
Subsequent of the shaking period the shaking can was moved into the flat dish, the cover was removed and the powder was manually poured into a glass can within the Faraday-Cup. Some of the powder was transferred by gravitational pouring (90-99%), the rest was transferred by manually push using wooden spatula (with strict adherence to tender motion).
The Faraday-Cup was closed and the charge reading (in meter display) was recorded. The described test stages were equally conducted on the selected 6 samples of each batch, as follow: 3 powder samples were shaken in metal can, 3 powder samples were shaken in plastic can. All the samples were shaken in each can for the same time period of 90 seconds.

[2] = Flowability, FT4 Powder Rheometer (REP+VFR); type: physicochemical; conditions: 25 mm blade, 25 ml vessel; for BFE (Basic Flow Energy = Energy Test 7): tipspeed 100 mm/s
Procedure: Instrument: FT4 Powder Rheometer (Freeman Technology Ltd).
Methodology: The blade was rotated and simultaneously moved axially into a powder sample whist axial force and rotational forces are measured.
The 25 mm blade and a 25 ml split borosilicate test vessel were used.
The Stability and Variable Flow Rate programs were run together by combining the two methods into one program (REP+VFR). The REP+VFR study is a combination of the seven conditioning and test cycles (blade tipspeed is 100 mm/s) at constant speed and the four conditioning and test cycles (blade tipspeed is 100, 70, 40 and 10 mm/s, respectively) with decreasing in blade speed. Definitions of the Flow Parameters:
Basic Flow Energy (BFE)=Energy Test 7, mJ
Stability index (SI)=Energy test 7/Energy Test 1

melatonin MT1 receptor = melatonin MT1 receptor (Homo sapiens, UniProt P48039); conditions: cited from earlier work
melatonin MT2 receptor = molecular target: T1, melatonin MT2 receptor (Homo sapiens, UniProt P49286); conditions: cited from earlier work
T1 sequence (P49286 1-362): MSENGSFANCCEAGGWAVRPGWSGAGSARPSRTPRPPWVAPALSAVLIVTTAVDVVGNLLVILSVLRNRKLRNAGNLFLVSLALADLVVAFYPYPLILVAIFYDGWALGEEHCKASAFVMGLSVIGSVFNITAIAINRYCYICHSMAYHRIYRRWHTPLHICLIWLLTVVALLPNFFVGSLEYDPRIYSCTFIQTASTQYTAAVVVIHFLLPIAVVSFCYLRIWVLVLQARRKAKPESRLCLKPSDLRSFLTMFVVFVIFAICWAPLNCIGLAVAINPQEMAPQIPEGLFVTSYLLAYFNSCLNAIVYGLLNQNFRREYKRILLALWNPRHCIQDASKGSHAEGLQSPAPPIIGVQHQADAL

MT3 receptor = molecular target: T2, MT3 receptor (Homo sapiens, UniProt P16083); conditions: cited from earlier work
T2 sequence (P16083 1-231): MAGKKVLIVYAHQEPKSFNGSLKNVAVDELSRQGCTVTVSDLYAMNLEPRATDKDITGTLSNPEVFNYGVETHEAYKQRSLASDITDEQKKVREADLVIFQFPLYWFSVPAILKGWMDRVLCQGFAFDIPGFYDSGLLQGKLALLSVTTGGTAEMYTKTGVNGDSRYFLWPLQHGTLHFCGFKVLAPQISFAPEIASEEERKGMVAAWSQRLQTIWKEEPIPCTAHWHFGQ

[3] = cited from earlier work

Chain of melatonin MT1 receptor (P48039 whole entry): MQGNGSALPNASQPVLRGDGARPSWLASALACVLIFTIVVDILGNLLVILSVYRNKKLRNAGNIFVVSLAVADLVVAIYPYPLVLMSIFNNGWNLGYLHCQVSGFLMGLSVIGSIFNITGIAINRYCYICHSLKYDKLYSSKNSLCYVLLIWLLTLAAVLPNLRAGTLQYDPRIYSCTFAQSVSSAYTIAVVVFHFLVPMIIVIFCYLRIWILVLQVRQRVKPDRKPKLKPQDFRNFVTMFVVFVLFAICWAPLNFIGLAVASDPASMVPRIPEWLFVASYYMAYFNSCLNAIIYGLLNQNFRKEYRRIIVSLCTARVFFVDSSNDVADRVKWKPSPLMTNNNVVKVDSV

Compound | average charge density relative to sample obtained from Toluene ([1]; metal can) | Average Charge Density of Batch ([1]; metal can) [nC/gr] | Calculated Charge Density ([1]; metal can) | average charge density relative to sample obtained from Toluene ([1]; plastic can) | Average Charge Density of Batch ([1]; plastic can) [nC/gr] | Calculated Charge Density ([1]; plastic can) | SI (Stability index = Energy test 7/Energy Test 1) [2] | BFE (Basic Flow Energy = Energy Test 7) ([2]; listed as Sample from Ethylacetate) [mJ] | affinity for melatonin MT1 receptor (melatonin MT1 receptor) | affinity for melatonin MT2 receptor (melatonin MT2 receptor) | selectivity over the MT3 receptor (MT3 receptor) | solubility ([3]; 1-octanol) | solubility ([3]; DMSO) | solubility ([3]; aqueous buffer) | solubility ([3]; ethanol) | solubility ([3]; methanol) | solubility ([3]; water) | BFE (Basic Flow Energy = Energy Test 7) ([2]; listed as Sample from Toluene) [mJ] | SI (Stability index = Energy test 7/Energy Test 1) ([2]; listed as Sample from Toluene)
CCC(=O)NCC[C@@H]1CCc2ccc3c(c21)CCO3 [Ethyl Acetate, ramelteon] | about 12 times | 9.63 | 8.8 nC/gr and 10.1 nC/gr and 10.0 nC/gr | about 15 times | 10.82 | 10.1 nC/gr and 14.05 nC/gr and 8.3 nC/gr | 0.622 | 181 |  |  |  |  |  |  |  |  |  |  | 
CCC(=O)NCC[C@@H]1CCc2ccc3c(c21)CCO3 [Ramelteon, (S)—N-[2-(1,6,7,8-tetrahydro-2H-indeno-[5,4-b]furan-8-yl)ethyl]propionamide] |  |  |  |  |  |  |  |  | high affinity | high affinity | selectivity over the MT3 receptor | freely soluble | freely soluble | highly soluble | freely soluble | freely soluble | highly soluble |  | 
CCC(=O)NCC[C@@H]1CCc2ccc3c(c21)CCO3 [Toluene, ramelteon] |  | 0.82 |  |  | 0.72 | 0.85 nC/gr and 0.6 nC/gr and 0.7 nC/gr |  |  |  |  |  |  |  |  |  |  |  | 92.5 | 1.02
